{"source": "patent US20050070462A1", "about": "“Method for stabilising of nucleic acids” (Intercell AG, priority 2001, published 2005)", "key": {"[1]": {"tested_on": "OVA257-264-specific IFN-γ producing T cells", "test": "IFN-γ ELISPOT of PBMCs at day 7 after injection with OVA257-264 and KLK (Example 6)", "format": "in vivo, Mice C57Bl/6", "conditions": "injected with OVA257-264, single adjuvant"}, "[2]": {"tested_on": "peptide-specific IFN-γ-producing T cells (TRP-2181-188)", "test": "IFN-γ ELISPOT of PBMCs at day 7 after injection with TRP-2181-188 and KLK (Example 7)", "format": "in vivo, Mice C57Bl/6", "conditions": "TRP-2181-188 alone or with a single adjuvant"}, "[3]": {"tested_on": "TRP-2181-188-specific immune responses", "test": "IFN-γ ELISPOT of spleen cells at day 6, 49 and 98 after injection with TRP-2181-188 (Example 5)", "format": "in vivo, Mice C57Bl/6", "conditions": "co-injection of TRP-2181-188, pR and ODN, day 6, day 49, day 98 after single injection, compared to TRP-2181-188 with pR or CpG 1668b"}, "[4]": {"tested_on": "OVA257-264-specific immune responses", "test": "IFN-γ ELISPOT of popliteal lymph node cells 4 days after footpad injection with OVA257-264 (Example 1)", "format": "in vivo, Mice C57Bl/6", "conditions": "injected with OVA257-264 and co-injection of poly-L-arginine 100 μg/mouse; ODN 5 nmol/mouse; day 4", "method": "• Mice C57Bl/6 (Harlan/Olac) • Peptide OVA257-264-Peptide (SIINFEKL), a MHC class I (H-2 Kb)-restricted epitope of chicken ovalbumin (Rotzschke et al., 1991), synthesized by standard solid phase F-moc synthesis, HPLC purified and analysed by mass spectroscopy for purity • Dose: 300 μg/mouse • Poly-L-arginine (pR) Poly-L-arginine with an average degree of polymerization of 43 arginine residues; SIGMA chemicals • Dose: 100 μg/mouse • CpG-ODN 1668 thiophosphate substituted ODNs containing CpG-motif: tcc atg acg ttc ctg atg ct, were synthesized by Purimex GmbH, Göttingen. • Dose: 5 nmol/mouse • CpG-ODN 1668 b ODNs containing CpG-motif (not substituted with thiophospate): tcc atg acg ttc ctg atg ct, were synthesized by Purimex GmbH, Göttingen. • Dose: 5 nmol/mouse. Experimental Groups (4 Mice Per Group) • 1. OVA257-264+pR • 2. OVA257-264+CpG-ODN 1668 • 3. OVA257-264+CpG-ODN 1668 b • 4. OVA257-264+CPG-ODN 1668+pR • 5. OVA257-264+CPG-ODN 1668 b+pR. […] This method is a widely used procedure allowing the quantification of antigen-specific T cells. […] Spots representing single IFN-γ producing T cells were counted and the number of background spots was substracted from all samples. The high number of spots detected after the stimulation with Con A (data not shown) indicates a good condition of the used lymphocytes. […]"}, "[5]": {"tested_on": "TRP-2181-188-specific immune responses", "test": "IFN-γ ELISPOT of spleen cells at day 40 after injection with TRP-2181-188 (Example 4)", "format": "in vivo, Mice C57Bl/6", "conditions": "injected with TRP-2181-188, single adjuvant, compared to TRP-2181-188 alone"}, "serum DNAses": {"tested_on": "serum DNAses", "test": "Degradation of DNA-plasmid pSP65 by serum DNAses, agarose gel (Example 8)", "format": "in vitro ADME", "conditions": "incubated with serum from naïve mice, 1 h at 37° C., presence of poly-L-arginine 2.4 μg", "method": "To investigate the protective effect of pR in preventing the degradation of DNA by DNAses the following in vitro experiment was performed. To show a possible in vivo relevance serum was used as source of DNases.\nThe DNA-plasmid pSP65 (1.58 μg/2 μl) was incubated with serum (8 μl) from naïve mice in the presence or absence of poly-L-arginine (2.4 μg/2.4 μl) for 1 h at 37° C. Addition of heparin (1.6 U/1.6 μl) for 20 min at RT was used for the dissociation of DNA/pR-complexes allowing DNA to migrate into the gel. […] As control a 100 bp DNA marker (GIBCO BRL) was used."}, "[6]": {"tested_on": "TRP-2181-188-specific immune responses", "test": "IFN-γ ELISPOT of lymph node cells after footpad injection with TRP-2181-188 (Examples 2 and 3)", "format": "in vivo, Mice C57Bl/6", "conditions": "injected with TRP-2181-188 and co-injection of poly-L-arginine 100 μg/mouse; ODN 5 nmol/mouse"}}, "note": "Ends that are not written are not given here."}
{"substance": "KLKLLLLLKLK—COOH (KLKLLLLLKLK-OH) [synthetic peptide containing KLK-motifs separated by a linker of hydrophobic amino acids]", "values": [{"measurement": "peptide-specific IFN-γ-production (PBMCs)", "setting": "[1]", "result": "no peptide-specific IFN-γ-production"}, {"measurement": "peptide-specific IFN-γ-production (PBMCs)", "setting": "[2]", "result": "no peptide-specific IFN-γ-production"}]}
{"substance": "CpG-ODN 1668 b: ODNs containing CpG-motif (not substituted with thiophospate): tcc atg acg ttc ctg atg ct (DNA TCCATGACGTTCCTGATGCT; unmodified DNA)", "values": [{"measurement": "peptide-specific IFN-g producing cells (spleen)", "setting": "[3]; listed as CpG 1668 b", "result": "potent and long lasting immune stimulatory effect"}, {"measurement": "peptide-specific IFN-g producing cells (spleen)", "setting": "[3]; listed as CpG 1668b", "result": "significantly higher numbers of peptide-specific IFN-g producing cells"}, {"measurement": "OVA257-264-specific immune response (IFN-γ-producing cells/1×10^6 lymph node cells)", "setting": "[4]", "result": "only upon co-injection of poly-L-arginine a high immune response was induced"}]}
{"substance": "Poly-L-arginine [pR]", "values": [{"measurement": "TRP-2181-188-specific immune response (IFN-γ-producing spleen cells)", "setting": "[5]", "result": "enhances TRP-2181-188-specific immune responses"}, {"measurement": "degradation of pSP65 DNA by serum DNases (agarose gel band pattern)", "setting": "serum DNAses", "result": "prevented"}]}
{"substance": "U-ODN 13b: ODNs containing deoxy-Uridine monophosphate (not substituted with thiophospate): tcc atg acu ttc ctg atg ct (DNA TCCATGACUTTCCTGATGCT; DNA, all phosphodiester, T or U not given here; further chemistry not fully specified)", "values": [{"measurement": "TRP-2181-188-specific immune response (IFN-γ-producing lymph node cells)", "setting": "[6]", "result": "only upon co-injection of poly-L-arginine a strong immune response was induced"}]}
{"substance": "TRP-2181-188: VYDFFVWL, a MHC class I (H-2 Kb)-restricted epitope of mouse tyrosinase related protein-2 [reference compound]", "values": [{"measurement": "peptide-specific IFN-γ-production (PBMCs)", "setting": "[2]", "result": "no peptide-specific IFN-γ-production"}]}
